{"source": "patent US8846570B2", "about": "“Herbicidal compositions comprising 4-amino-3-chloro-5-fluoro-6-(4-chloro-2-fluoro-3-methoxyphenyl)pyridine-2-carboxylic acid or a derivative thereof and microtubule inhibiting herbicides” (Dow AgroSciences LLC, priority 2012, dated 2014)", "test_in_all_cases": "Postemergence foliar-applied, direct seeded rice, greenhouse: visual weed control", "type_in_all_cases": "in vivo", "key": {"[1]": {"test_system": "Cyperus difformis L. (CYPDI)", "settings": "20 DAA; 5.3 g ae/ha", "experimental": "(§1) Seeds or nutlets of the desired test plant species were planted in a soil matrix prepared by mixing a loam or sandy loam soil (e.g., 28.6 percent silt, 18.8 percent clay, and 52.6 percent sand, with a pH of about 5.8 and an organic matter content of about 1.8 percent) and calcareous grit in an 80 to 20 ratio. The soil matrix was contained in plastic pots with a volume of 1 quart and a surface area of 83.6 cm^2. […] The plants were grown for 8-22 days in a greenhouse with an approximate 14 h photoperiod which was maintained at about 29° C. during the day and 26° C. during the night. Nutrients (Peters Excel® 15-5-15 5-Ca 2-Mg and iron chelate) were applied in the irrigation solution as needed and water was added on a regular basis. Supplemental lighting was provided with overhead metal halide 1000-Watt lamps as necessary. The plants were employed for testing when they reached the first through fourth true leaf stage.\n(§2) Forms of compound A were applied on an acid equivalent basis.\n(§3) For treatments comprised of formulated compounds, measured amounts of compounds were placed individually in 25 mL glass vials and diluted in a volume of 1.25% (v/v) Agri-Dex® crop oil concentrated to obtain 12× stock solutions. […] Application solutions were prepared by adding an appropriate amount of each stock solution (e.g., 1 mL) and diluted to the appropriate final concentrations with the addition of 10 mL of an aqueous mixture of 1.25% (v/v) crop oil concentrate so that the final spray solutions contained 1.25+/−0.05% (v/v) crop oil concentrate.\n(§4) As required, additional water and/or 97:3 v/v acetone/DMSO was added to individual application solutions so that the final acetone and DMSO concentrations of the application solutions being compared were 8.1% and 0.25%, respectively.\n(§5) All stock solutions and applications solutions were visually inspected for compound compatibility prior to application. Spray solutions were applied to the plant material with an overhead Mandel track sprayer equipped with a 8002E nozzles calibrated to deliver 187 L/ha over an application area of 0.503 m^2 at a spray height of 18 to 20 inches (46 to 50 cm) above average plant canopy height. Control plants were sprayed in the same manner with the solvent blank.\n(§6) The treated plants and control plants were placed in a greenhouse as described above and watered by sub-irrigation to prevent wash-off of the test compounds. After approximately 3 weeks, the condition of the test plants as compared with that of the untreated plants was determined visually and scored on a scale of 0 to 100 percent where 0 corresponds to no injury or growth inhibition and 100 corresponds to complete kill.\n(§7) Colby's equation was used to determine the herbicidal effects expected from the mixtures (Colby, S. R. 1967. Calculation of the synergistic and antagonistic response of herbicide combinations. Weeds 15:20-22.).\n(§8) The following equation was used to calculate the expected activity of mixtures containing two active ingredients, A and B: Expected=A+B−(A×B/100)"}, "[2]": {"test_system": "Cyperus esculentus L. (CYPES)", "settings": "20 DAA", "experimental": "as §1, §2, §3, §4, §5, §6, §7, §8"}, "[3]": {"test_system": "Schoenoplectus juncoides (Roxb.) Palla (SCPJU)", "settings": "20 DAA; 5.3 g ae/ha", "experimental": "as §1, §2, §3, §4, §5, §6, §7, §8"}, "[4]": {"test_system": "Leptochloa chinensis (L.) Nees (LEFCH)", "settings": "19 DAA", "text": "Seeds or nutlets of the desired test plant species were planted in a soil matrix prepared by mixing a loam or sandy loam soil (e.g., 28.6 percent silt, 18.8 percent clay, and 52.6 percent sand, with a pH of about 5.8 and an organic matter content of about 1.8 percent) and calcareous grit in an 80 to 20 ratio. The soil matrix was contained in plastic pots with a volume of 1 quart and a surface area of 83.6 cm^2. When required to ensure good germination and healthy plants, a fungicide treatment and/or other chemical or physical treatment was applied. The plants were grown for 8-22 days in a greenhouse with an approximate 14 h photoperiod which was maintained at about 29° C. during the day and 26° C. during the night. Nutrients (Peters Excel® 15-5-15 5-Ca 2-Mg and iron chelate) were applied in the irrigation solution as needed and water was added on a regular basis. Supplemental lighting was provided with overhead metal halide 1000-Watt lamps as necessary. The plants were employed for testing when they reached the first through fourth true leaf stage.\nTreatments consisted of the acid or esters of 4-amino-3-chloro-5-fluoro-6-(4-chloro-2-fluoro-3-methoxy-phenyl)pyridine-2-carboxylic acid (Compound A), each formulated as an SC (suspension concentrate), and various herbicidal components alone and in combination. Forms of compound A were applied on an acid equivalent basis.\nTreatment requirements were calculated based upon the rates being tested, the concentration of active ingredient or acid equivalent in the formulation, and a 12 mL application volume at a rate of 187 L/ha.\nas §3, §4, §5, §6, §7, §8"}}}
{"smiles": "COc1c(Cl)ccc(-c2nc(C(=O)O)c(Cl)c(N)c2F)c1F", "note": "[Compound A Acid, 4-amino-3-chloro-6-(4-chloro-2-fluoro-3-methoxyphenyl)-5-fluoropyridine-2-carboxylic acid]", "values": [{"measurement": "Visual Weed Control (%) Obs", "setting": "[1]", "value": 80, "unit": "%"}, {"measurement": "Visual Weed Control (%) Obs", "setting": "[2]; 5.3 g ae/ha", "value": 0, "unit": "%"}, {"measurement": "Visual Weed Control (%) Obs", "setting": "[2]; 10.6 g ae/ha", "value": 90, "unit": "%"}, {"measurement": "Visual Weed Control (%) Obs", "setting": "[3]", "value": 25, "unit": "%"}]}
{"smiles": "COc1c(Cl)ccc(-c2nc(C(=O)OCc3ccccc3)c(Cl)c(N)c2F)c1F", "note": "[Compound A Benzyl Ester, benzyl ester of 4-amino-3-chloro-5-fluoro-6-(4-chloro-2-fluoro-3-methoxy-phenyl)pyridine-2-carboxylic acid]", "values": [{"measurement": "Visual Weed Control (%) Obs", "setting": "[4]; 4.38 g ae/ha", "value": 0, "unit": "%"}, {"measurement": "Visual Weed Control (%) Obs", "setting": "[4]; 8.75 g ae/ha", "value": 25, "unit": "%"}, {"measurement": "Visual Weed Control (%) Obs", "setting": "[4]; 17.5 g ae/ha", "value": 30, "unit": "%"}]}
{"smiles": "CCC(CC)Nc1c([N+](=O)[O-])cc(C)c(C)c1[N+](=O)[O-]", "note": "[Pendimethalin, N-(1-ethylpropyl)-3,4-dimethyl-2,6-dinitrobenzenamine, reference compound]", "values": [{"measurement": "Visual Weed Control (%) Obs", "setting": "[4]; 140 g ai/ha", "value": 0, "unit": "%"}, {"measurement": "Visual Weed Control (%) Obs", "setting": "[4]; 280 g ai/ha", "value": 20, "unit": "%"}, {"measurement": "Visual Weed Control (%) Obs", "setting": "[4]; 560 g ai/ha", "value": 80, "unit": "%"}]}
